# Source: US10051857B2, “Formulation component” (SYNGENTA LIMITED, priority 2011, dated 2018)
# Tests used:
# Assay type in all cases: in vivo
# [1] = tested on: four weed species (AMATE, BRADE, DIGSA, POLCO); assay: Glasshouse adjuvant test with mesotrione (Example 6), mean across species; settings: mesotrione 45 or 90 g/ha, adjuvant 0.2% v/v or none
# [2] = tested on: Digitaria sanguinalis (DIGSA); assay: Glasshouse adjuvant test with mesotrione (Example 6); settings: mesotrione 45 or 90 g/ha, adjuvant 0.2% v/v or none, 200 l/ha; growth stage 14; mean over two rates, three replicates, 7, 14 and 21 days
# Experimental: (§1) Compound 1 was tested in a glasshouse against four weed species using the herbicide mesotrione. A 20% w/w stock emulsion of compound 1 was prepared additionally containing 2% w/w Gohsenol® GL03 and 2% w/w Pluronic® PE10500 as surfactants. Using this, an agrochemical composition was prepared containing 0.2% v/v of the adjuvant in a track sprayer and was applied at a volume of 200 liters per hectare. Mesotrione was applied at either 45 or 90 grams of pesticide per hectare on each of the weed species. The weed species and their growth stage at spraying were Amaranthus tuberculatus (AMATE; growth stage 13/14), Brachiaria decumbens (BRADE; growth stage 13/14), Digitaria sanguinalis (DIGSA; growth stage 14), and Polygonum convolvulus (POLCO; growth stage 11/11.5).
# (§2) Each test was replicated three times. The efficacy of the herbicide was assessed visually and expressed as a percentage of the leaf area killed. Samples were assessed at time periods of 7, 14 and 21 days following application. The results shown in Table 6 below are mean averages over the two rates of mesotrione, three replicates and the three assessment timings, and are compared to the efficacy of mesotrione in absence of adjuvant.
# [3] = tested on: Amaranthus tuberculatus (AMATE); assay: as above; settings: mesotrione 45 or 90 g/ha, adjuvant 0.2% v/v or none, 200 l/ha; growth stage 13/14; mean over two rates, three replicates, 7, 14 and 21 days
# Experimental: as §1, §2
# [4] = tested on: Polygonum convolvulus (POLCO); assay: as above; settings: mesotrione 45 or 90 g/ha, adjuvant 0.2% v/v or none, 200 l/ha; growth stage 11/11.5; mean over two rates, three replicates, 7, 14 and 21 days
# Experimental: as §1, §2
# [5] = tested on: Brachiaria decumbens (BRADE); assay: as above; settings: mesotrione 45 or 90 g/ha, adjuvant 0.2% v/v or none, 200 l/ha; growth stage 13/14; mean over two rates, three replicates, 7, 14 and 21 days
# Experimental: as §1, §2
# [6] = tested on: four weed species (ABUTH, CHEAL, SETVI, XANST); assay: Glasshouse adjuvant test with fomesafen (Example 3), mean across species; settings: fomesafen 60 or 120 g/ha, adjuvant 0.2% v/v or none
# Experimental: (§3) Compound No. 2 was tested in a glasshouse against four weed species in combination with the herbicide fomesafen. An agrochemical composition was prepared containing 0.2% v/v of the adjuvant in a track sprayer and was applied at a volume of 200 liters per hectare. Fomesafen was applied at either 60 or 120 grams of pesticide per hectare on weeds which had been grown to the 1.3 or 1.4 leaf stage. The weed species were Chenopodium album (CHEAL), Abutilon theophrasti (ABUTH), Setaria viridis (SETVI), and Xanthium strumarium (XANST).
# (§4) Each spray test was replicated six times. The efficacy of the herbicide was assessed visually and expressed as a percentage of the leaf area killed. Samples were assessed at time periods of 7 and 14 days following application. The results shown in Table 3 below are mean averages over the two rates of fomesafen, six replicates and the two assessment timings, and are compared to the efficacy of fomesafen in the absence of adjuvant.
# [7] = tested on: Xanthium strumarium (XANST); assay: Glasshouse adjuvant test with fomesafen (Example 3); settings: fomesafen 60 or 120 g/ha, adjuvant 0.2% v/v or none, 200 l/ha; leaf area killed; mean over two rates, six replicates, 7 and 14 days
# Experimental: as §3, §4
# [8] = tested on: Chenopodium album (CHEAL); assay: as above; settings: fomesafen 60 or 120 g/ha, adjuvant 0.2% v/v or none, 200 l/ha; leaf area killed; mean over two rates, six replicates, 7 and 14 days
# Experimental: as §3, §4
# [9] = tested on: Abutilon theophrasti (ABUTH); assay: as above; settings: fomesafen 60 or 120 g/ha, adjuvant 0.2% v/v or none, 200 l/ha; leaf area killed; mean over two rates, six replicates, 7 and 14 days
# Experimental: as §3, §4
# Setaria viridis (SETVI) [10] = assay: as above; settings: fomesafen 60 or 120 g/ha, adjuvant 0.2% v/v or none, 200 l/ha; leaf area killed; mean over two rates, six replicates, 7 and 14 days
# Experimental: as §3, §4
# [11] = tested on: four weed species (CHEAL, ABUTH, SETVI, XANST); assay: Glasshouse adjuvant test with fomesafen (Example 5), mean across species; settings: fomesafen 60 or 120 g/ha, adjuvant 0.2% v/v or none
# Experimental: (§5) Compound 1 (N, N-diethyl-3-methylbenzamide) was tested in a glasshouse against four weed species using the herbicide fomesafen. An agrochemical composition was prepared containing 0.2% v/v of the adjuvant in a track sprayer and was applied at a volume of 200 liters per hectare. Fomesafen was applied at either 60 or 120 grams of pesticide per hectare on each of the weed species. The weed species and their growth stage at spraying were Chenopodium album (CHEAL; growth stage 13/14), Abutilon theophrasti (ABUTH; growth stage 12), Setaria viridis (SETVI; growth stage 13), and Xanthium strumarium (XANST; growth stage 12).
# (§6) Each spray test was replicated three times. The efficacy of the herbicide was assessed visually and expressed as a percentage of the leaf area killed. Samples were assessed at time periods of 7, 14 and 21 days following application. The results shown in Table 5 below are mean averages over the two rates of fomesafen, three replicates and the three assessment timings, and are compared to the efficacy of fomesafen in the absence of adjuvant.
# [12] = tested on: Xanthium strumarium (XANST); assay: Glasshouse adjuvant test with fomesafen (Example 5); settings: fomesafen 60 or 120 g/ha, adjuvant 0.2% v/v or none, 200 l/ha; growth stage 12; mean over two rates, three replicates, 7, 14 and 21 days
# Experimental: as §5, §6
# [13] = tested on: Chenopodium album (CHEAL); assay: as above; settings: fomesafen 60 or 120 g/ha, adjuvant 0.2% v/v or none, 200 l/ha; growth stage 13/14; mean over two rates, three replicates, 7, 14 and 21 days
# Experimental: as §5, §6
# [14] = tested on: Abutilon theophrasti (ABUTH); assay: as above; settings: fomesafen 60 or 120 g/ha, adjuvant 0.2% v/v or none, 200 l/ha; growth stage 12; mean over two rates, three replicates, 7, 14 and 21 days
# Experimental: as §5, §6
# Setaria viridis (SETVI) [15] = assay: as above; settings: fomesafen 60 or 120 g/ha, adjuvant 0.2% v/v or none, 200 l/ha; growth stage 13; mean over two rates, three replicates, 7, 14 and 21 days
# Experimental: as §5, §6
# Lolium perenne (LOLPE) = assay: Glasshouse adjuvant test with pinoxaden (Example 8); settings: pinoxaden 7.5 or 15 g/ha, adjuvant 0.2% v/v or none, 200 l/ha; growth stage 13; mean over two rates, three replicates, 14 and 21 days
# Experimental: (§7) The adjuvant shown in example 1 was tested in a glasshouse against four weed species in combination with the herbicide pinoxaden. A 20% w/w stock emulsion of compound 1 was prepared additionally containing 2% w/w Gohsenol® GL03 and 2% w/w Pluronic® PE10500 as surfactants. Using this, an agrochemical composition was prepared containing 0.2% v/v of the adjuvant in a track sprayer and was applied at a volume of 200 liters per hectare. Pinoxaden was applied at either 7.5 or 15 grams of pesticide per hectare on each of the weed species. The weed species and their growth stage at spraying were Alopecurus myosuroides (ALOMY; growth stage 13), Avena fatua (AVEFA; growth stage 12); Lolium perenne (LOLPE; growth stage 13), Setaria viridis (SETVI; growth stage 14).
# as §6, with “of” for “of 7,”, “Table 8” for “Table 5 below”, “of pinoxaden,” for “of fomesafen,”, “the two” for “the three”, “of pinoxaden” for “of fomesafen”
# Setaria viridis (SETVI) [16] = assay: as above; settings: pinoxaden 7.5 or 15 g/ha, adjuvant 0.2% v/v or none, 200 l/ha; growth stage 14; mean over two rates, three replicates, 14 and 21 days
# Experimental: as §7
# as §6, with “of” for “of 7,”, “Table 8” for “Table 5 below”, “of pinoxaden,” for “of fomesafen,”, “the two” for “the three”, “of pinoxaden” for “of fomesafen”
# Avena fatua (AVEFA) = assay: as above; settings: pinoxaden 7.5 or 15 g/ha, adjuvant 0.2% v/v or none, 200 l/ha; growth stage 12; mean over two rates, three replicates, 14 and 21 days
# Experimental: as §7
# as §6, with “of” for “of 7,”, “Table 8” for “Table 5 below”, “of pinoxaden,” for “of fomesafen,”, “the two” for “the three”, “of pinoxaden” for “of fomesafen”
# [17] = tested on: Alopecurus myosuroides (ALOMY); assay: as above; settings: pinoxaden 7.5 or 15 g/ha, adjuvant 0.2% v/v or none, 200 l/ha; growth stage 13; mean over two rates, three replicates, 14 and 21 days
# Experimental: as §7
# as §6, with “of” for “of 7,”, “Table 8” for “Table 5 below”, “of pinoxaden,” for “of fomesafen,”, “the two” for “the three”, “of pinoxaden” for “of fomesafen”
# [18] = tested on: four weed species (ALOMY, AVEFA, LOLPE, SETVI); assay: Glasshouse adjuvant test with pinoxaden (Example 8), mean across species; settings: pinoxaden 7.5 or 15 g/ha, adjuvant 0.2% v/v or none
# Experimental: as §7
# as §6, with “of” for “of 7,”, “Table 8” for “Table 5 below”, “of pinoxaden,” for “of fomesafen,”, “the two” for “the three”, “of pinoxaden” for “of fomesafen”
# [19] = tested on: four weed species (ABUTH, CHEAL, DIGSA, SETVI); assay: Glasshouse adjuvant test with nicosulfuron (Example 7), mean across species; settings: nicosulfuron 30 or 60 g/ha, adjuvant 0.2% v/v or none
# Experimental: (§8) Compound 1 was tested in a glasshouse against four weed species using the herbicide nicosulfuron. A 20% w/w stock emulsion of compound 1 was prepared additionally containing 2% w/w Gohsenol® GL03 and 2% w/w Pluronic® PE10500 as surfactants. Using this, an agrochemical composition was prepared containing 0.2% v/v of the adjuvant in a track sprayer and was applied at a volume of 200 liters per hectare. Nicosulfuron was applied at either 30 or 60 grams of pesticide per hectare on each of the weed species. The weed species and their growth stage at spraying were Abutilon theophrasti (ABUTH; growth stage 13), Chenopodium album (CHEAL; growth stage 14), Digitaria sanguinalis (DIGSA; growth stage 13), and Setaria viridis (SETVI; growth stage 13).
# (§9) Each spray test replicated three times. The efficacy of the herbicide was assessed visually and expressed as a percentage of the leaf area killed. Samples were assessed at time periods of 14 and 21 days following application. The results shown in Table 7 below are mean averages over the two rates of nicosulfuron, three replicates and the two assessment timings, and are compared to the efficacy of nicosulfuron in the absence of an adjuvant.
# [20] = tested on: Chenopodium album (CHEAL); assay: Glasshouse adjuvant test with nicosulfuron (Example 7); settings: nicosulfuron 30 or 60 g/ha, adjuvant 0.2% v/v or none, 200 l/ha; growth stage 14; mean over two rates, three replicates, 14 and 21 days
# Experimental: as §8, §9
# [21] = tested on: Abutilon theophrasti (ABUTH); assay: as above; settings: nicosulfuron 30 or 60 g/ha, adjuvant 0.2% v/v or none, 200 l/ha; growth stage 13; mean over two rates, three replicates, 14 and 21 days
# Experimental: as §8, §9
# [22] = tested on: Digitaria sanguinalis (DIGSA); assay: as above; settings: nicosulfuron 30 or 60 g/ha, adjuvant 0.2% v/v or none, 200 l/ha; growth stage 13; mean over two rates, three replicates, 14 and 21 days
# Experimental: as §8, §9
# Setaria viridis (SETVI) [23] = assay: as above; settings: nicosulfuron 30 or 60 g/ha, adjuvant 0.2% v/v or none, 200 l/ha; growth stage 13; mean over two rates, three replicates, 14 and 21 days
# Experimental: as §8, §9
structure (smiles),measurement,setting,value
"CS(=O)(=O)c1ccc(C(=O)C2C(=O)CCCC2=O)c([N+](=O)[O-])c1 [mesotrione, reference compound]","Mean percentage kill, Mean across species",[1],47.1%
same,Mean percentage kill DIGSA,[2],23%
same,Mean percentage kill AMATE,[3],65.6%
same,Mean percentage kill POLCO,[4],73.3%
same,Mean percentage kill BRADE,[5],26.7%
"CS(=O)(=O)NC(=O)c1cc(Oc2ccc(C(F)(F)F)cc2Cl)ccc1[N+](=O)[O-] [fomesafen, reference compound]","Mean percentage kill, Mean across species",[6],47.0%
same,Mean percentage kill XANST,[7],45.8%
same,Mean percentage kill CHEAL,[8],43.3%
same,Mean percentage kill ABUTH,[9],60.8%
same,Mean percentage kill SETVI,Setaria viridis (SETVI) [10],38.2%
same,"Mean percentage kill, Mean across species",[11],37.7%
same,Mean percentage kill XANST,[12],42.8%
same,Mean percentage kill CHEAL,[13],77.5%
same,Mean percentage kill ABUTH,[14],20%
same,Mean percentage kill SETVI,Setaria viridis (SETVI) [15],10.6%
"CCc1cc(C)cc(CC)c1-c1c(OC(=O)C(C)(C)C)n2n(c1=O)CCOCC2 [Pinoxaden, pinoxaden, reference compound]",Mean percentage kill LOLPE,Lolium perenne (LOLPE),12.5%
same,Mean percentage kill SETVI,Setaria viridis (SETVI) [16],15%
same,Mean percentage kill AVEFA,Avena fatua (AVEFA),20.8%
same,Mean percentage kill ALOMY,[17],21.2%
same,"Mean percentage kill, Mean across species",[18],17.4%
"COc1cc(OC)nc(NC(=O)NS(=O)(=O)c2ncccc2C(=O)N(C)C)n1 [nicosulfuron, reference compound]","Mean percentage kill, Mean across species",[19],75%
same,Mean percentage kill CHEAL,[20],50.8%
same,Mean percentage kill ABUTH,[21],69.2%
same,Mean percentage kill DIGSA,[22],87.9%
same,Mean percentage kill SETVI,Setaria viridis (SETVI) [23],92%
